Data from patent publication US12128035B2, “Activating pyruvate kinase R” (Novo Nordisk Health Care AG, priority 2021, dated 2024).

Assays:
[1] = Phase 1: safety (adverse events) in SCD patients; assay type: in vivo, human
Protocol: In the SD cohort, 7 pts (2 males, 5 females, all HbSS) received 700 mg Compound 1 (n=5) or placebo (n=2).
All SCD patients who received a single 700 mg dose of Compound 1 or placebo were monitored for adverse events for 7 days. The incidence of treatment emergent adverse events (TEAEs) in SCD patients receiving Compound 1 (700 mg) or placebo are reported in Table 23. Six TEAEs were reported in 4 patients; all TEAEs were grade 1 and transient. Specifically, six TEAEs were reported in 4 of 7 (57%) patients, including 3 TEAEs (arthralgia, headache, palpitations) in 2 of 5 (40%) pts receiving Compound 1 and 3 TEAEs (back pain, myalgia, pruritis) in 2 of 2 (100%) pts receiving placebo; all TEAEs were grade 1 and transient. […] One possibly related TEAE (palpitations) occurred about 8 hours post dose. No other symptoms were observed, and the palpitations resolved in <1 minute. […] The single 700 mg dose of Compound 1 was considered tolerable, and the first multiple dose SCD cohort was initiated.
Based on data from the MAD1 (300 mg once daily for 14 days), Compound 1 is well-tolerated in patients with SCD. In all, eighteen TEAEs were reported in 7 of 9 patients in the MAD1 (300 mg once daily) cohort (N=9). These included (a) eight Grade 1 TEAEs, including 3 patients c/o headache, 1 each of nausea, constipation, somnolence, increased LDH and increased AST, of which two AEs considered to be possibly related to study treatment were reported by one patient each (1 AE of headache and 1 AE of nausea); (b) six Grade 2 TEAEs, including 3 uncomplicated sickle pain events (in 2 patients), 1 patient with N/V and 1 increased reticulocytes, of which no AEs were considered related to study treatment, all AEs of pain events were considered unrelated and consistent with each patient's SCD pain history, and all AEs were treated with patient's standard home pain medications (no SAE/no hospitalization); and (c) one Grade 4 TEAE of elevated creatine kinase, unrelated to study treatment. Non-treatment-related AEs were consistent with events experienced in this patient population. No treatment-related serious AEs were reported.

sickle RBCs = assay: Phase 1: Lorrca Osmoscan in SCD patients; assay type: in vivo, human
Protocol: In this study, SAD/MAD cohorts are randomized (3 to 1) to receive Compound 1 or placebo (P). Compound 1 was evaluated first in 4 healthy SAD cohorts and 4 healthy MAD (14-day dosing period) cohorts. Based on the safety, and PK/PD profile from HS, Compound 1 is then evaluated in 1 SCD SAD cohort and 2 SCD MAD cohorts. Specifically, based on the safety and pharmacokinetic/pharmacodynamics (PK/PD) profile in healthy volunteer studies, Compound 1 is evaluated in patients (pts) with SCD, first in a single dose (SD or SAD) cohort and then in multiple-dose (MD or MAD) cohorts (14-day and 12-week). Safety assessments include AEs, vital signs, ECGs and laboratory parameters. PK/PD blood sampling was performed on Day 1 (SAD/MAD) and Day 14 (MAD) and up to 72 h after the last dose and at the end-of-study visit. PD parameters included 2,3-DPG, ATP, and p50 in all cohorts with additional PD studies (including oxygen scan) performed only in the SCD cohorts. PD parameters included 2,3-DPG, ATP, p50, RBC deformability with controlled deoxygenation and reoxygenation (Lorrca® oxygen scan) and varying osmolality (Lorrca® osmoscan)). To maintain study blind, pt identifiers were removed when needed.
Functional evaluation of RBCs was performed using Laser-Optical Rotational Red Cell Analyzer (Lorrca®) technology (RR Mechatronics, Zwaag, The Netherlands). Osmoscan was performed for healthy subjects, and both Oxygenscan and Osmoscan analyses were undertaken for the patients with SCD. In brief, the Oxygenscan allows for the measurement and visualisation of RBC elongation in shear stress in an oxygen gradient, during deoxygenation and re-oxygenation, expressed as the elongation index (EI). […] Evaluated Osmoscan parameters included: EImax; Omin (osmolality at ELmax; hypotonic region), which corresponds to the value of the hypotonic osmolality at which 50% of the cells hemolyse in an osmotic fragility assay and provides information on the initial surface-to-volume ratio of the RBCs; and Ohyper (osmolality corresponding to 50% of the EImax; hypertonic region), which correlates with the initial intracellular viscosity of the cell sample. […]
The effects of a single dose of Compound 1 (700 mg) versus placebo on oxygen scan, oxygen affinity (p50), and osmoscan in SCD patients were evaluated. […] In order to measure the impact of Compound 1 on this critical function, the effect of Compound 1 compared to placebo on the deformability of SCD RBCs across an osmolality gradient was evaluated. […]

In the case of `O=C([C@H](CO)c1ccccc1)N1CC2=C(C1)CN(S(=O)(=O)c1cnc3c(c1)OCCO3)C2` (single isomer, unassigned) [Compound 1], the “Any TEAE, n (%)” value ([1]; SCD 300 mg × 14 days (n = 7)) is reported as 6 (86%) n (%), the “Any serious adverse event (SAE), n (%)” value ([1]; SCD 300 mg × 14 days (n = 7)) is reported as 0 n (%) and the “Related to study drug, n (%)” value ([1]; SCD 300 mg × 14 days (n = 7)) is reported as 2 (29%) n (%). The tolerability ([1]; SCD 400 mg QD, 84 days (12 weeks), open-label) was “well-tolerated”, the “serious adverse events / TEAEs leading to withdrawal” value ([1]; SCD SD cohort) was “No serious adverse events (SAEs) or TEAEs leading to pt withdrawal were reported” and the “Any TEAE, n (%)” value ([1]; SCD single 700 mg (N = 5)) was 2 (40) n (%). For the same compound, the “Related to study drug, n (%)” value ([1]; SCD single 700 mg (N = 5)) was 1 (20) n (%), the “EImax (Osmoscan)” value (sickle RBCs; SCD single 700 mg, Post-dose (24 hours), median (range), pre-dose 0.483 (0.46, 0.57)) was 0.478 (0.46, 0.57) and the “Omin (Osmoscan)” value (sickle RBCs; SCD single 700 mg, Post-dose (24 hours), median (range), pre-dose 108 (105, 121)) was 117 (106, 124). The “Ohyper (Osmoscan)” value (sickle RBCs; SCD single 700 mg, Post-dose (24 hours), median (range), pre-dose 380 (371, 399)) was 400 (371, 412) and the “time to return to baseline of Oxygenscan/Osmoscan effects” value (sickle RBCs; SCD, after the single 700 mg dose) was 3 to 7 days.
